In patent US9981983B2, “Thienopyranones as kinase inhibitors” (SignalRx Pharmaceuticals, Inc., priority 2008, dated 2018):

Key:
mTOR = mTOR (Homo sapiens, UniProt P42345); assay: mTOR inhibition; format: biochemical
[1] = system: pAKT serine 473 level in PC3 cells; assay: pAKT status in IGF-1 stimulated PC3 cells (Ser473 pAKT ELISA); format: cell-based; settings: Homo sapiens, PC-3; PC3 cells; read-out: IC50 pAKT (Pathway Inhibition)
Procedure: PC3 cells were obtained from the American Type Culture Collection (ATCC, Manassas, Va., Cat.# CRL-1435). Two million cells from the prostate cancer line PC3 were placed into 6 cm culture dishes and allowed to grow in complete RPMI 1640 media (Invitrogen, Carlsbad, Calif., Cat.#22400-105) with 10% fetal bovine serum (Invitrogen, Carlsbad, Calif., Cat.#10438-026). After this time period the cells were serum starved for 5 hours followed by application of the test compound. Test compound was added as a DMSO (dimethyl sulfoxide) solution such that the final DMSO concentration in the cell media was less than or equal to 0.2% by volume After 30 minutes of exposure the growth factor stimulant, human IGF-1 (PeproTech, Inc., Rocky Hill, N.J., Cat.#100-11), was added to a final concentration of 0.1 μg/ml in each well. After 30 minutes of IGF-1 exposure, cells were removed from the media and cell lysates were prepared using RIPA Lysis buffer (Upstate, Lake Placid, N.Y., Cat.#20-188), keeping on ice. The pAKT serine 473 level was measured in duplicate samples of the cell lysates using commercially available assays such as the Pathscan® Sandwich ELISA kit for Ser473 pAKT (Cell Signaling, Danvers, Mass., Cat.#7160). A SpectraMax Plus spectrophotometric plate reader (Molecular Devices, Sunnydale, Calif.) was used to measure the optical density signal for pAKT at 450 nm (OD450 nm). The pAKT OD450 nm readings were normalized by total protein amount in the cell lysates determined by standard methods.
Concentrations of test compounds required to inhibit IGF stimulated pAKT levels to 50% of maximum levels in PC3 cells (termed DM50 for decreased maximum 50%) were calculated by inputting the dose responses in the software package GraphPad Prism4 (GraphPad Software, Inc., San Diego, Calif.).
By these methods a number of compounds of the invention were evaluated and the concentration needed to reduce the detectable pAKT to 50% of the maximal uninhibited signal was calculated. These values (in μMolar units) are listed in Table 8 under the column heading PC3 pAKT IC50 (μMolar).

PC3 cells = assay: PC3 prostate cancer cell proliferation (WST); format: cell-based; settings: Homo sapiens, PC-3; PC3 cells; read-out: PC3 IC50 Proliferation
Procedure: PC3 cells were obtained from the American Type Culture Collection (ATCC, Manassas, Va., Cat.# CRL-1435) Two thousand cells from the prostate cancer line PC3 were placed in 50 μL of complete RPMI 1640 media (Invitrogen, Carlsbad, Calif., Cat.#22400-105) with 10% fetal bovine serum (Invitrogen, Carlsbad, Calif., Cat.#10438-026) into each well of 96 well cell culture plates in a hexaplicate sampling pattern. A 50 μL aliquot of test compound (prepared from stock test compounds in DMSO diluted into media) was added to the appropriate well such that the final concentrations of test compound were 200, 40, 8, 1.6, 0.32, 0.064, 0.0128, 0.00256, and 0 μM and the final DMSO concentration was less than or equal to 0.2%.
The plates were incubated for 72 hours 37° C. in an atmosphere of 5% CO2. At the end of this time a 10 μL aliquot of WST solution (Roche Applied Science, Mannheim, Germany) was added into each of the wells. Cells were exposed to the WST solution for 4 hours. A SpectraMax Plus spectrophotometric plate reader (Molecular Devices, Sunnydale, Calif.) was then used to measure the optical density at 450 nm (OD450 nm). Sigmoidal curves were drawn for the dose responses and IC50 values were calculated using the software package GraphPad Prism4 (GraphPad Software, Inc., San Diego, Calif.).

[2] = system: 786-0 renal cell carcinoma xenograft; assay: 786-0 renal cell carcinoma xenograft mouse model; format: in vivo, nude mice; settings: 25 mg/kg, ip, 3×/wk for 4 weeks
Procedure: To determine if Cpd 9 has anti-tumor effects, an in vivo study was conducted in a 786-0 renal cell carcinoma xenograft model, 786-0 cells (2×10^6) were inoculated subcutaneously into nude mice in the flank area and tumor growth was monitored with calipers via external measurements. Tumor volume was calculated using the formula volume=(length×width^2)/2. When the average tumor volume reached 400 mm^3, mice were randomly divided into 2 groups and treated with either DMSO (control) or Cpd 9 (25 mg/kg, ip) three times weekly (M, W, F) for two weeks.
To determine if Cpd 28 has anti-tumor effects, an in vivo study was conducted in a 786-0 renal cell carcinoma xenograft model, 786-0 cells (2×10^6) were inoculated subcutaneously into nude mice in the flank area and tumor growth was monitored with calipers via external measurements. Tumor volume was calculated using the formula volume=(length×width^2)/2. Treatment was started when tumors reached an average volume of 300 mm^3. […] DMSO was used as control since this was the vehicle the compounds were dissolved in. Tumor size was monitored twice weekly and body weight was monitored once weekly. Means and standard deviations were calculated and the Student t test method was used for statistical comparisons.

PI-3 kinases = settings: Vlahos et al. J. Biol. Chem. 1994; cited from earlier work

O=c1cc(N2CCOCC2)oc2c(-c3ccccc3)cccc12 [LY294002, 2-morpholino-8-phenyl-4H-chromen-4-one, reference compound]
IC50 (mTOR): 1060 nM
IC50 [1]: 1300 nM
IC50 (PC3 cells): 7500 to 12100 nM
tumor growth inhibition compared to control [2]: 54%
IC50 (PI-3 kinases): 1400 nM
